Results on 2 compounds are retold here after patent US20020168327A1, “Treatment of dandruff” (Unilever Home & Personal Care USA, Division of Conopco, Inc., priority 2001, published 2002).

Several values for one entry are separate records, joined by “and”; a condition that tells them apart may be missing. Equal entries are not always repeated.

Data set [1] is described as follows: In vitro skin penetration study, Franz diffusion cells, radiolabelled shampoo. In kind it is in vitro ADME, human. To be noted: 6-fold diluted shampoo, one minute contact then washed off; 3H label; p<0.05. Here is the method: Radiolabelled formulations were prepared using formulations spiked with either ^3H Lysine or ^3H glyceryl trioleate in sunflower seed oil. The total balance of each nutrient was brought up to 0.01% by weight using non-labelled cold material. Excised human full thickness skin was obtained and placed in between the two compartments of Franz diffusion cells. The skin is maintained by filling the receptor chamber of the cell with phosphate buffered saline with the cells placed in a water bath at 37° C. to maintain a surface skin tissue of about 32° C. […] The experimental procedure was as follows:
6-fold diluted shampoo was applied to the skin, left for one minute and washed off. The skin was then separated into 3:
remainder of the epidermis (viable) is then removed using heat separation (identified as the epidermal section)
Each of these layers was analysed for radioactivity and the amount of material penetrated calculated.
Using the in-vitro skin penetration studies, the amount of penetrated material can be quantified as a snap shot in time. From the skin sectioning process, the location of the penetrant at the particular point in time can be measured.

In data set [2] the test system is ceramide levels in stratum corneum. Kind of data set: Ceramide production in skin: test products applied to the volar forearm for four weeks, stratum corneum tape stripping. In kind it is in vivo, human. To be noted: responder subset of subjects; 1.0% of each active in ethanol/propylene glycol; twice daily for four weeks on volar forearm. Here is the method: Tests on the ability of compositions to increase ceramide production in skin were carried out. The formulation pairs tested were: 1.0% tetraacetyl phytosphingosine (TAPS) vs Vehicle 1.0% TAPS+1.0% juniperic acid+1.0% linoleic acid vs Vehicle. Vehicle=ethanol/propylene glycol (1:1) plus 0.2% by weight Glydant Plus™. […] The studies were conducted as double-blind paired comparisons, with treatment assignments randomized. Subjects first completed a four-day washout phase. During the four-week application phase, test products were applied twice daily to the volar surface of the forearms, using dropper bottles to deliver 0.1 ml of test product to each site; each subject applied a test formulation to one site and the vehicle formulation to the adjacent site. After four weeks of application, samples of stratum corneum were obtained by tape stripping. A subset of subjects who responded to the treatments as expected, with a significant increase in ceramide levels, data from subjects showing increased ceramides was broken out. In each case, responder subjects represented a cross-section of the whole panel; they were not predominantly of one sex or age group. […] Increases were seen across all ceramide types. The increases for ceramides 1 and 2 were dramatically higher than for the other ceramide types.

Take `NCCCC[C@H](N)C(=O)O` [lysine]: the “skin penetration (skin layers reached)” value in data set [1] was “penetrate not only into the stratum corneum but also deeper into the epidermis and dermis”.

As for tetraacetyl phytosphingosine [TAPS], the “mean increase in ceramide levels compared with vehicle” value in data set [2] is 30% and 25%.
